From US12221649B2 (priority 2018, dated 2025)
Blank lines part the entries; values can stand above or below the compound they belong to.

Tests used:
carboxypeptidase B (CPB) = biological target: T1, carboxypeptidase B (CPB) (Homo sapiens, UniProt P15086); assay type: biochemical; settings: for fluorescence change on incubation with CPB: 10 μM probe in PBS(-), Ex/Em=355/460 nm
T1 sequence (P15086 111-417): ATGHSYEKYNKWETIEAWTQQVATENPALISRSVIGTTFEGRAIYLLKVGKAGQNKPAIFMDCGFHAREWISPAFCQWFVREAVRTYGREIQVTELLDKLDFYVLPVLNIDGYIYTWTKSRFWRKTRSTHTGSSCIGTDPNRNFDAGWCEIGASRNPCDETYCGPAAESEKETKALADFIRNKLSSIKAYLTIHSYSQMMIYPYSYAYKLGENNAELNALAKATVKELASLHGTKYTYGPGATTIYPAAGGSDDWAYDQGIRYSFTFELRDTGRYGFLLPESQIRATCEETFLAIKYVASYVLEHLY
Protocol: (§1) An enzyme assay using the synthesized Compounds A, B was performed. As a result, the fluorescence of Compounds A and B was increased by incubation with carboxypeptidase A (CPA) and carboxypeptidase B (CPB) which were the respective target enzymes, and the increase in fluorescence was suppressed by addition of (S)-benzylsuccinic acid and MGTA which were the respective inhibitors.
FIG. 3(a) illustrates a reaction scheme of Compound B and CPB. In FIG. 3(b), 10 μM Compound B in PBS (-) was incubated at 37° C. with 5 ng CPB in the presence or absence of 100 μM inhibitor (MGTA) containing 0.1% DMSO as a co-solvent. Ex/Em=355/460 nm. n=4.
An enzyme assay using the synthesized Compound C and CPB was performed.
(§2) FIG. 4(a) illustrates a reaction scheme of Compound C and CPB. In FIG. 4(b), 10 μM Compound C in PBS (-) was incubated at 37° C. in the presence or absence of 5 ng CPB containing 0.1% DMSO as a co-solvent. Ex/Em=355/460 nm. n=4. […] 10 μM Compound A or Compound C in PBS (-) was incubated at 37° C. in the absence of CPB. Ex/Em=355/460 nm. n=4.
(§3) Next, reactivity with CPB and the stability in a buffer solution having a pH of 7.4 were examined. As a result, it became clear that while HMRef-tSoul-AR caused a fluorescence increase of 3320 times by reaction with CPB, HMRef-tSoul-AR was stable for at least about 1 hour in the absence of enzyme. The results are illustrated in FIG. 5.
(§4) FIG. 5(a) illustrates a reaction scheme of HMRef-tSoul-AR and CPB. FIG. 5(b) illustrates the fluorescence increase of 1 μM HMRef-tSoul-AR in PBS (-) incubated with 30 μg CPB containing 0.1% DMSO as a co-solvent. Incubation was performed at 25° C. The excitation wavelength was 498 nm. FIG. 5(c) illustrates an absorption change of 1 μM HMRef-tSoul-AR in PBS (-) at 25° C. for 50 minutes.

[1] = assay type: physicochemical; settings: for fluorescence change in the absence of enzyme (non-enzymatic degradation): 10 μM probe in PBS(-), pH 7.4, 37° C., no enzyme
Protocol: as §1, §2, §3, §4

carboxypeptidase A (CPA) = biological target: T2, carboxypeptidase A (CPA) (Homo sapiens, UniProt P15085); assay: Enzyme assay of Compound A and CPA (fluorescence increase); assay type: biochemical; settings: 37° C.
T2 sequence (P15085 111-419): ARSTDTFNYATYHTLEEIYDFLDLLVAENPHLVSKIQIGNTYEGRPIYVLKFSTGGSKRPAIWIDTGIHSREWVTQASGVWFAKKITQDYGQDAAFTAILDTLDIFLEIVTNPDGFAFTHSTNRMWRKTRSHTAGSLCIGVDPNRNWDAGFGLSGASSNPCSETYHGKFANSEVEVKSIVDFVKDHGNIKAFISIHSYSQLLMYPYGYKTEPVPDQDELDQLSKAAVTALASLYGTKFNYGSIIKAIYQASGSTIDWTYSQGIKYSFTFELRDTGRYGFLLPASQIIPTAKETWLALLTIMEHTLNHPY
Protocol: An enzyme assay using the synthesized Compounds A, B was performed.
(§5) FIG. 2(a) illustrates a reaction scheme of Compound A and CPA. In FIG. 2(b), 10 μM Compound A in PBS (-) was incubated at 37° C. with 5 ng CPA activated by 1.5 μg trypsin in the presence or absence of 100 μM inhibitor ((S)-benzylsuccinic acid) containing 0.1% DMSO as a co-solvent. Ex/Em=355/460 nm. n=4. (In FIG. 2, Try represents trypsin, and SBSA represents (S)-benzylsuccinic acid.)

trypsin = biological target: T3, trypsin (Bos taurus, UniProt P00760); assay: Compound A with only trypsin added (control condition of the CPA assay); assay type: biochemical; settings: 10 μM Compound A, no CPA
T3 construct: gene PRSS1
T3 sequence (P00760 24-246): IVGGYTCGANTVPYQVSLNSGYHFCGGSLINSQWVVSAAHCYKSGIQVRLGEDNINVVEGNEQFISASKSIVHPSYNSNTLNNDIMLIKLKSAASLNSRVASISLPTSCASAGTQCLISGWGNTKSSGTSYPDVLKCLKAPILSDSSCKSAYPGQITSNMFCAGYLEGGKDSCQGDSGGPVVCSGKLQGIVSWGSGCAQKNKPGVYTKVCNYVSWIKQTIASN
Protocol: as §1, §5

PSMA = PSMA (Homo sapiens, UniProt Q04609); assay: Enzyme assay of probes and PSMA (fluorescence increase); assay type: biochemical; settings: 10 μM probe in TBS buffer, 37° C., 22 ng PSMA, Ex/Em=355/460 nm
PSMA, sequence (Q04609 whole entry): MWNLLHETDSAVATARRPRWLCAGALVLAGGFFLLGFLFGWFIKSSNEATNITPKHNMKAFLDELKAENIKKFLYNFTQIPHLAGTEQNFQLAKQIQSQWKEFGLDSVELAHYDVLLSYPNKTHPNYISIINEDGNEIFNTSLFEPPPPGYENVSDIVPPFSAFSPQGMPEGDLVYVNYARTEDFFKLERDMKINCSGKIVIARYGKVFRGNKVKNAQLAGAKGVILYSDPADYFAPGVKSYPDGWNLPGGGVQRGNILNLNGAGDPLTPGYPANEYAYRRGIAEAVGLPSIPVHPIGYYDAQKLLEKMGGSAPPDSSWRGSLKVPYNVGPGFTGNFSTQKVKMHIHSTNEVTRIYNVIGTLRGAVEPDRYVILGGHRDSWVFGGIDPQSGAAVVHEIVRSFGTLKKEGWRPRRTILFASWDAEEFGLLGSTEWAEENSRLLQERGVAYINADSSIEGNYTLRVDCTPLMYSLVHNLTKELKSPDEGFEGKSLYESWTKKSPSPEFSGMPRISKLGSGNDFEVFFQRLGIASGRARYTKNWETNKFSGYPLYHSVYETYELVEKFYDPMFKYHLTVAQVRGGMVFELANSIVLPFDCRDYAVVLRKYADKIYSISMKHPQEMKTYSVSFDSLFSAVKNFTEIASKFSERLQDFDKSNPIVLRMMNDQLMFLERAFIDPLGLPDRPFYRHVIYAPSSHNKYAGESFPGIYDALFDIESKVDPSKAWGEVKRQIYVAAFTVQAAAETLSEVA
Protocol: An enzyme assay was performed using the synthesized 4MU-tSoul-AE and PSMA.
An enzyme assay was performed using the synthesized 4MU-tSoul-GE and PSMA.
Here, FIG. 9(a) illustrates a reaction scheme of 4MU-tSoul-GE and PSMA. […] Ex/Em=355/460 nm. n=3.

CPB = biological target: T4, CPB (Homo sapiens, UniProt P15086); assay: Enzyme reaction rate parameters with CPB (fluorescence method, plate reader); assay type: biochemical; settings: CPB 5 ng, 37° C., PBS pH 7.4, 20 μL, apparent
T4 sequence (P15086 111-417): T1 sequence (P15086 111-417)
Protocol: (§6) In addition, an enzyme reaction rate parameter was calculated.
(§7) All experiments were performed at 37° C. in a total volume of 20 μL of phosphate buffered saline (pH 7.4) containing DMSO as a co-solvent. 5 ng of CPB or CPM was added. An enzyme reaction initial rate was calculated from a fluorescence change at 535 nm using a plate reader (n=3). The excitation wavelength was 485 nm.

[2] = tested on: MDCK cells expressing CPM; assay: Live imaging of CPM activity in MDCK cells; assay type: cell-based
Protocol: Live imaging of the carboxypeptidase activity in living cells was performed using HMRef-tSoul-AR synthesized above. […] Since it has been reported that CPM is expressed as an active form on a cell membrane unlike CPB, addition of trypsin or the like is unnecessary.
Here, FIGS. 6(a) and 6(b) illustrate fluorescence images of the MDCK cells containing 10 μM HMRef-tSoul-AR in HBSS in the presence (a) or absence (b) of 10 μM MGTA. Ex/Em=488/500-550 nm laser output 5%, PMT 600 V. 10 μM Hoechst 33342 was co-incubated for focal plane correction. For imaging of a Hoechst signal, Ex/Em=405/430-460 nm. Laser output 3%, PMT 1000 V, SP8.
Here, FIG. 7 illustrates results of UPLC analysis of a medium of the MDCK cells incubated with 20 μM HMRef-tSoul-AR in the presence or absence of 10 μM MGTA. The MDCK cells were incubated with 20 μM HMRef-tSoul-AR in HBSS at 37° C. for 20 hours in the presence or absence of 10 μM MGTA. Elution was performed with a linear gradient of C/D=95/5 to 5/95 in 4 minutes and detected at 254 nm.

carboxypeptidase M (CPM) = biological target: T5, carboxypeptidase M (CPM) (Homo sapiens, UniProt P14384); assay: Enzyme reaction rate parameters with CPM (fluorescence method, plate reader); assay type: biochemical
T5 sequence (P14384 18-423): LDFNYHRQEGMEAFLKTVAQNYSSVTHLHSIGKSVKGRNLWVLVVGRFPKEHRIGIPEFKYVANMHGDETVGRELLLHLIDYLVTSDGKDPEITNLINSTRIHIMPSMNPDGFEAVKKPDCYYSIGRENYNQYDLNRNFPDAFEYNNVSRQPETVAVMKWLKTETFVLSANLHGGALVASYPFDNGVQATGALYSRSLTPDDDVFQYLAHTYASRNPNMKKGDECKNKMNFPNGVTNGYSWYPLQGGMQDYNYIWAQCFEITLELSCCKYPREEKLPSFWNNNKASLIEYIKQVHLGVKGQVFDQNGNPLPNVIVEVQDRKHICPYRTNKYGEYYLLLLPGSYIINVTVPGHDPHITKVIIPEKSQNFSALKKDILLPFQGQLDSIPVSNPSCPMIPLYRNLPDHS
Protocol: as §6, §7

[3] = tested on: basic carboxypeptidase activity in breast cancer tissue; assay: Fluorescence imaging of clinical specimens derived from breast cancer patients; set-up: species or system human
Protocol: Four specimens (IDC: invasive ductal carcinoma, 3 cases; DCIS: ductal carcinoma in situ, 1 case) derived from breast cancer patients were subjected to fluorescence imaging by applying HMRef-tSoul-AR to a tumor site and a normal site by the following procedure (FIG. 10).
HMRef-tSoul-AR was dissolved in PBS so as to have a final concentration of 50 μM (containing 1% DMSO), and applied to clinical specimens from breast cancer patients in the presence and absence of 100 μM MGTA. A fluorescence image was captured on Maestro in vivo imaging system (PerkinElmer, Inc., MA, USA), a 455 nm (435-480 nm) band pass filter was used as an excitation light filter, and a 490 nm long pass filter was used as a fluorescence filter.
When an increase was observed, in order to examine whether or not the increase was derived from basic carboxypeptidase activity, a group to which the inhibitor MGTA was added was also examined at the same time.

[4] = CPM 5 ng, 37° C., PBS pH 7.4, 20 μL, apparent

SMILES: CCOP(=O)(N[C@@H](C)C(=O)N[C@@H](CCCNC(=N)N)C(=O)O)Oc1ccc2c(C)cc(=O)oc2c1 (stereo partly shown) [Compound B]
- fluorescence change on incubation with CPB (carboxypeptidase B (CPB); 37° C., 5 ng CPB): increased
- fluorescence change in the absence of enzyme (non-enzymatic degradation) [1]: gradually increased even slightly

SMILES: CCOP(=O)(N[C@@H](C)C(=O)N[C@@H](Cc1ccccc1)C(=O)O)Oc1ccc2c(C)cc(=O)oc2c1 (stereo partly shown) [Compound A]
- fluorescence change on incubation with CPA (carboxypeptidase A (CPA); 10 μM probe in PBS(-), 5 ng CPA activated by 1.5 μg trypsin, Ex/Em=355/460 nm): increased
- fluorescence change with only trypsin added (trypsin): a remarkable increase in fluorescence was not observed
- fluorescence change in the absence of enzyme (non-enzymatic degradation) [1]: gradually increased even slightly

SMILES: Cc1cc(=O)oc2cc(OP(=O)(N[C@@H](C)C(=O)N[C@@H](CCC(=O)O)C(=O)O)C(C)(C)C)ccc12 (stereo partly shown) [Compound 4MU-tSoul-AE]
- fluorescence change on incubation with PSMA (PSMA): the increase in fluorescence was not observed

SMILES: C[C@H](NP(=O)(Oc1ccc2c(c1)Oc1cc(NCC(F)(F)F)ccc1C21OCc2ccccc21)C(C)(C)C)C(=O)N[C@@H](CCCNC(=N)N)C(=O)O (stereo partly shown) [HMRef-tSoul-AR]
- Km (CPB): 50 µM
- Vmax (CPB): 1.2e-08 M/s
- kcat (CPB): 1.7 s⁻¹
- fluorescence increase by reaction with CPB (carboxypeptidase B (CPB); 1 μM probe in PBS(-), 30 μg CPB, 25° C., excitation 498 nm): 3320 times
- time stable in the absence of enzyme ([1]; 1 μM probe, buffer pH 7.4, 25° C., absorption change): at least 1 hour
- fluorescence from MDCK cells over time ([2]; 10 μM probe in HBSS, Ex/Em=488/500-550 nm): an increase in fluorescence over time from the MDCK cells was observed
- generation of HMRef in external liquid of MDCK cells (UPLC) ([2]; 20 μM probe, HBSS, 37° C., 20 hours): HMRef was certainly generated
- substrate recognition by CPM (carboxypeptidase M (CPM)): served as a substrate
- Km (carboxypeptidase M (CPM); [4]): 61 µM
- Vmax (carboxypeptidase M (CPM); [4]): 4e-08 M/s
- kcat (carboxypeptidase M (CPM); [4]): 1.0 s⁻¹
- fluorescence from tumor tissue as compared with normal tissue ([3]; 50 μM probe in PBS (1% DMSO), four breast cancer specimens): remarkable increase in fluorescence

SMILES: Cc1cc(=O)oc2cc(OP(=O)(NCC(=O)N[C@@H](CCC(=O)O)C(=O)O)C(C)(C)C)ccc12 (stereo partly shown) [Compound 4MU-tSoul-GE]
- fluorescence change on incubation with PSMA (PSMA): the increase in fluorescence was observed

- effect of inhibitor on the increase in fluorescence of Compound A with CPA (carboxypeptidase A (CPA); 100 μM inhibitor, 10 μM Compound A, 5 ng CPA): suppressed
SMILES: O=C(O)C[C@H](Cc1ccccc1)C(=O)O [(S)-benzylsuccinic acid, reference compound]

SMILES: NC(N)=NCCSCC(CS)C(=O)O (stereo not shown) [MGTA, reference compound]
- effect of inhibitor on the increase in fluorescence of Compound B with CPB (carboxypeptidase B (CPB); 100 μM inhibitor, 10 μM Compound B, 5 ng CPB, 37° C.): suppressed
- effect of inhibitor on the increase in fluorescence of HMRef-tSoul-AR in MDCK cells ([2]; 10 μM inhibitor, 10 μM HMRef-tSoul-AR in HBSS): completely suppressed
- effect of inhibitor on the increase in fluorescence of HMRef-tSoul-AR in breast cancer specimens ([3]; 100 μM inhibitor, 50 μM HMRef-tSoul-AR): suppressed

SMILES: Cc1cc(=O)oc2cc(OP(=O)(N[C@@H](C)C(=O)N[C@@H](CCCNC(=N)N)C(=O)O)C(C)(C)C)ccc12 (stereo partly shown) [Compound C]
- fluorescence change on incubation with CPB (carboxypeptidase B (CPB); 37° C., 5 ng CPB): served as a substrate for CPB and showed the increase in fluorescence
- fluorescence change in the absence of enzyme (non-enzymatic degradation) [1]: no increase in fluorescence was observed
